Values of other authors as cited in patent US10300042B2, “Apremilast for the treatment of a liver disease or a liver function abnormality” (Celgene Corporation, priority 2014, dated 2019).

Test system: alanine aminotransferase and/or aspartate aminotransferase
Conditions: animal models and human studies; cited from earlier work

## CC(=O)CCCCn1c(=O)c2c(ncn2C)n(C)c1=O [Pentoxifylline]
  Liver Function Tests abnormalities (ALT, AST levels): decreasing levels of alanine aminotransferase and/or aspartate aminotransferase
